Source: US8815902B2, “Tetrahydroquinoline amide M1 receptor positive allosteric modulators” (Merck Sharp & Dohme Corp., priority 2010, dated 2014)
Like-named read-outs stand apart in the source and are kept apart here. Values belong to the molecule of their own block, whether it stands above or below them.

Biological target: T1, acetylcholine muscarinic M1 receptor (hM1) (Homo sapiens, UniProt P11229)
T1 construct: expressed in transfected cells; host or cells: CHOnfat cells (CHO, NFAT reporter background), Geneticin-selected; b186 also calls them CHOK1/hM1
T1 sequence (P11229 1-460): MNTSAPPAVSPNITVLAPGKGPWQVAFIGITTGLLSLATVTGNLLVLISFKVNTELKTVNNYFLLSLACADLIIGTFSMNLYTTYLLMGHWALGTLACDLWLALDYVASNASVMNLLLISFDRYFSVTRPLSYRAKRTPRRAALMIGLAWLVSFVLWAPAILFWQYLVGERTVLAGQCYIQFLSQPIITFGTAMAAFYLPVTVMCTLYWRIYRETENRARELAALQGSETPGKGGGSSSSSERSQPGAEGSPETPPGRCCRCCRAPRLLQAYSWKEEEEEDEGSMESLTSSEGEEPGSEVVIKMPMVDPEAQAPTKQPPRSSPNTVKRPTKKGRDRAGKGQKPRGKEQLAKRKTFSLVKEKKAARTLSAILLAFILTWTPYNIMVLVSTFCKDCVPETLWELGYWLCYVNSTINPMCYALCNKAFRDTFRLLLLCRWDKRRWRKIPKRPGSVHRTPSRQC
Assay: muscarinic FLIPR assay: intracellular calcium in CHOnfat/hM1 cells, potentiation of EC20 acetylcholine
Type: cell-based
Protocol: The assay studies the effect of one or several concentrations of test compounds on basal or acetylcholine-stimulated Ca^2+ levels using FLIPR.
Compounds are prepared and subjected to a preincubation period of 4 min. Thereafter, a single EC20 concentration of acetylcholine is added to each well (3 nM final). The intracellular Ca^2+ level of each sample is measured and compared to an acetylcholine control to determine any modulatory activity.
Cells: CHOnfat/hM1, hM2, hM3 or hM4 cells are plated 24 hr before the assay at a density of 18,000 cells/well (100 μL) in a 384 well plate. CHOnfat/hM1 and CHOnfat/hM3 Growth Medium: 90% DMEM (Hi Glucose); 10% HI FBS; 2 mM L-glutamine; 0.1 mM NEAA; Pen-Strep; and 1 mg/ml Geneticin, are added. For M2Gqi5CHOnfat and M4Gqi5CHOnfat cells, an additional 600 ug/ml hygromycin is added.
Equipment: 384 well plate, 120 μL addition plate; 96-well Whatman 2 ml Uniplate Incubator, 37° C., 5% CO2; Skatron EMBLA-384 Plate Washer; Multimek Pipetting System; Genesis Freedom 200 System; Mosquito System; Temo Nanolitre Pipetting System; and FLIPR^384 Fluorometric Imaging Plate Reader System are used.
Buffers. Assay Buffer: Hanks Balanced Salt Solution, with 20 mM Hepes, 2.5 mM Probenecid (Sigma P-8761) first dissolved in 1 N NaOH, 1% Bovine Serum Albumin (Sigma A-9647). Dye Loading Buffer: Assay Buffer plus 1% Fetal Bovine Serum and Fluo-4AM/Pluronic Acid Mixture. 2 mM Fluo-4AM ester stock in DMSO (Molecular Probes F-14202) Concentration of 2 μM in buffer for a final concentration of 1 μM in Assay. 20% Pluronic Acid Solution stock, with concentration of 0.04% in Buffer, 0.02% in Assay.
65 μL of 2 mM Fluo-4AM are mixed with 130 μL of 20% Pluronic Acid. The resulting solution and 650 μL FBS is added to the assay buffer for a total volume of 65 mL. Positive Controls: 4-Br-A23187: 10 mM in DMSO; final concentration 10 μM. Acetylcholine: 10 mM in water, working stock at both 20 μM and 30 μM in assay buffer, final concentration of 10 μM. This is used to check the maximum stimulation of the CHOK1/hM1 cells. 20 μM (2×) acetylcholine is added in the preincubation part of the assay, and the 30 μM (3×) stock is added in the second part. (EC20) Acetylcholine: 10 mM in water, working stock of 9 nM (3×), and final concentration in assay is 3 nM. This is used after the preincubation with test compounds. Addition of the EC20 Acetylcholine to each well with a test compound will ascertain any modulator activity. 24 wells contain 3 nM Acetylcholine alone as a control.
Screening Plate Compounds are titrated in 96-well plates (columns 2-11), 100% DMSO, started at a concentration of 15 mM (150× stock concentration), and 3-fold serial dilutions using Genesis Freedom200 System. Four 96-well plates are combined into a 384-well plate using Mosquito Nanolitre Pipetting System by transferring 1 μl of serial diluted compounds to each well, and 1 mM acetylcholine (100× stock concentration) were added as a control. Using Temo, 49 μl assay buffer is added to each well of the 384-well plate right before assay.
In a 96-well Whatman 2 ml Uniplate, 9 nM Acetylcholine (3×) is pipetted into wells corresponding to the screening compounds, and into control wells. The 30 μM acetylcholine control (3×) is added into control wells, and the 3× agonist plate is transferred into a 384 well plate.
Cells are washed three times with 100 μL of buffer, leaving 30 μL of buffer in each well. Using Multimek, 30 μL of Dye Loading Buffer is added into each well and incubated at 37° C., 5% CO2 for up to one hr.
After 60 min, the cells are washed three times with 100 μL of buffer, leaving 30 μL of buffer in each well. The cell plate, screening plate, and agonist addition plates are placed on the platform in the FLIPR and the door closed. A signal test to check background fluorescence and basal fluorescence signal is performed. Laser intensity is adjusted if necessary. […]

[1] = Table 1, EC20 acetylcholine (3 nM final), read-out: H Pot.
[2] = Table 2, EC20 acetylcholine (3 nM final), read-out: M1 IP (inflection point)

SMILES: O=C(N[C@H]1CCCC[C@@H]1O)c1cc(Cc2ccc(Cl)nc2)c2c(n1)CCCC2 [Compound 7]
- EC50 [1]: 129 nM

SMILES: COc1ccc(-c2ccc(Cc3cc(C(=O)N[C@H]4CCCC[C@@H]4O)nc4c3CCCC4)cn2)cn1 [Compound 8]
- EC50 [1]: 18 nM

SMILES: O=C(N[C@H]1CCCC[C@@H]1O)c1cc(Cc2ccc(-c3cccnc3)nc2)c2c(n1)CCCC2 [Compound 9]
- EC50 [1]: 15 nM

SMILES: O=C(N[C@H]1CCCC[C@@H]1O)c1cc(Cc2ccc(-c3ccc(F)nc3)nc2)c2c(n1)CCCC2 [Compound 10]
- EC50 [1]: 36 nM

SMILES: O=C(N[C@H]1CCCC[C@@H]1O)c1cc(Cc2ccc(-c3ccccc3)nc2)c2c(n1)CCCC2 [Compound 11]
- EC50 [1]: 26 nM

SMILES: COc1cc(Cc2cc(C(=O)N[C@H]3CCOC[C@@H]3O)nc3c2CCCC3)ccn1 [Compound 12]
- EC50 [1]: 120 nM

SMILES: O=C(NC1CCOCC1O)c1cc(Cc2ccn3ccnc3c2)c2c(n1)CCCC2 (stereo not drawn) [Compound 13]
- EC50 [1]: 80 nM

SMILES: O=C(N[C@H]1CCOC[C@@H]1O)c1cc(Cc2ccnc3ccccc23)c2c(n1)CCCC2 [Compound 14]
- EC50 [1]: 33 nM

SMILES: O=C(N[C@H]1CCOC[C@@H]1O)c1cc(Cc2cnc3ccccc3c2)c2c(n1)CCCC2 [Compound 15]
- EC50 [1]: 11 nM

SMILES: O=C(N[C@H]1CCOC[C@@H]1O)c1cc(Cc2ccc(-c3cccnc3)nc2)c2c(n1)CCCC2 [Compound 16]
- EC50 [1]: 11 nM

SMILES: O=C(N[C@H]1CCOC[C@@H]1O)c1cc(Cc2ccc(-c3ccc(F)nc3)nc2)c2c(n1)CCCC2 [Compound 17]
- EC50 [1]: 15 nM

SMILES: COc1cncc(-c2ccc(Cc3cc(C(=O)N[C@H]4CCOC[C@@H]4O)nc4c3CCCC4)cn2)c1 [Compound 18]
- EC50 [1]: 7 nM

SMILES: O=C(N[C@H]1CCOC[C@@H]1O)c1cc(Cc2ccc(-c3cncc(F)c3)nc2)c2c(n1)CCCC2 [Compound 19]
- EC50 [1]: 23 nM

SMILES: Cc1ccc(-c2ccc(Cc3cc(C(=O)N[C@H]4CCOC[C@@H]4O)nc4c3CCCC4)cn2)cn1 [Compound 20]
- EC50 [1]: 7 nM

SMILES: Cc1cncc(-c2ccc(Cc3cc(C(=O)N[C@H]4CCOC[C@@H]4O)nc4c3CCCC4)cn2)c1 [Compound 21]
- EC50 [1]: 6 nM

SMILES: COc1ccc(-c2ccc(Cc3cc(C(=O)N[C@H]4CCOC[C@@H]4O)nc4c3CCCC4)cn2)cn1 [Compound 22]
- EC50 [1]: 17 nM

Second part, the molecule after the results:

- EC50 [1]: 620 nM
SMILES: CC(C)(C)OC(=O)N1CC=C(Cc2cc(C(=O)N[C@H]3CCOC[C@@H]3O)nc3c2CCCC3)CC1 [Compound 23]

- EC50 [1]: 2240 nM
SMILES: CC(=O)N1CCC(Cc2cc(C(=O)N[C@H]3CCOC[C@@H]3O)nc3c2CCCC3)CC1 [Compound 24]

- EC50 [2]: 102 nM
SMILES: O=C(N[C@H]1CCOC[C@@H]1O)c1cc(Cc2ccc(Cl)nc2)c2c(n1)CCCC2 [Example 1, 1,5-Anhydro-3[({4-[(6-chloropyridin-3-yl)methyl]-5,6,7,8-tetrahydroquinolin-2-yl}carbonyl)amino]-2,3-dideoxy-L-threo-pentitol]

- EC50 [2]: 88 nM
SMILES: CSc1ccc(Cc2cc(C(=O)N[C@H]3CCCC[C@@H]3O)nc3c2CCCC3)cn1 [Example 2, N-[(1S,2S)-2-Hydroxycyclohexyl]-4-{[6-(methylsulfanyl)pyridin-3-yl]methyl}-5,6,7,8-tetrahydroquinoline-2-carboxamide]

- EC50 [2]: 98 nM
SMILES: COc1ccc(Cc2cc(C(=O)N[C@H]3CCOC[C@@H]3O)nc3c2CCCC3)cn1 [Example 3, 1,5-Anhydro-2,3-dideoxy-3-[({4-[(6-methoxypyridin-3-yl)methyl]-5,6,7,8-tetrahydroquinolin-2-yl}carbonyl)amino]-L-threo-pentitol]

- EC50 [2]: 654 nM
SMILES: CC(=O)N1CC=C(Cc2cc(C(=O)N[C@H]3CCOC[C@@H]3O)nc3c2CCCC3)CC1 [Example 4, 3-[{(4-[(1-Acetyl-1,2,3,6-tetrahydropyridin-4-yl)methyl]-5,6,7,8-tetrahydroquinolin-2-yl}carbonyl)amino]-1,5-anhydro-2,3-dideoxy-L-threo-pentitol]

- EC50 [2]: 4 nM
SMILES: Cn1cc(-c2ccc(Cc3cc(C(=O)N[C@H]4CCOC[C@@H]4O)nc4c3CCCC4)cn2)cn1 [Example 5, 1,5-Anhydro-2,3-dideoxy-3-{[(4-{[6-(1-methyl-1H-pyrazol-4-yl)pyridine-3-yl]methyl}-5,6,7,8-tetrahydroquinolin-2-yl)carbonyl}amino]-L-threo-pentitol]

- EC50 [2]: 115 nM
SMILES: O=C(N[C@H]1CCOC[C@@H]1O)c1cc(Cc2ccc(-c3cnccn3)nc2)c2c(n1)CCCC2 [Example 6, 1,5-Anhydro-2,3-dideoxy-3-{[(4-{[6-(pyrazin-2-yl)pyridine-3-yl]methyl}-5,6,7,8-tetrahydroquinolin-2-yl)carbonyl]amino}-L-threo-pentitol]
